Laboratory results reported in patent US7285567B2, “Halogenated benzamide derivatives” (Romark Laboratories, L.C., priority 2005, dated 2007).
Values after ≈ are worked out from the molar mass of the structure shown. Where two headings read alike, the source gives them in different places.

Key:
[1] = test system: hepatitis C virus (HCV) replicon; experiment: HCV replication in AVA5 replicon cell culture, 3-day assay; type: cell-based
Experimental: (§1) Anti-Hepatitis C Virus (HCV) analyses and an assessment of cytotoxicity were performed in a 3-day assay in the HCV replicon-containing human hepatoblastoma cell line, AVA5 (Okuse, C., Rinaudo, J. A., Farrar, K., Wells, F. & Korba, B. E. Enhancement of antiviral activity against hepatitis C virus in vitro by interferon combination therapy. Antivir. Res. 65, 23-34 (2005)) as previously described (Blight, K. J., Kolykhalov, A. A. & Rice, C. M. Efficient initiation of HCV RNA replication in cell culture. Science 290, 1972-1974 (2000)).
(§2) Values presented (±standard deviations [S.D.]) were calculated by linear regression analysis using data combined from all treated cultures. S.D. were calculated using the standard error of regression generated from the linear regression analyses (QuattroPro™). EC50, EC90=drug concentration at which a 2-fold, or a 10-fold depression of HCV RNA (relative to the average levels in untreated cultures), respectively, was observed. CC50=drug concentration at which a 2-fold depression of neutral red dye uptake was observed relative to the average levels in untreated cultures. Selectivity index=CC50/EC50.

[2] = Cytotoxicity in AVA5 cells (neutral red dye uptake); type: cell-based, human; conditions: human, 2-fold depression of neutral red dye uptake
Experimental: as §1, §2

[3] = test system: Human Rhinovirus Type 39 (HRV-39); experiment: Multiple cycle CPE inhibition assay on OH-I Hela cell monolayers; type: cell-based; conditions: Rhinovirus A, HRV39, HRV-39, OH-Hela, 2% McCoys + Hepes Buffer
Experimental: (§3) EC50 (μg/mL) values for 2-(acetolyloxy)-3-methyl-N-(5-bromo-2-thiazolyl)benzamide (RM4803), 2-(acetolyloxy)-3-methyl-N-(5-chloro-2-thiazolyl)benzamide (RM4804), and 2-(acetolyloxy)-3-methoxy-N-(5-bromo-2-thiazolyl)benzamide (RM4806), on Human Rhinovirus Type 39 (HRV-39), and H3N2 influenza virus, type A, using a multiple cycle CPE inhibition assay on OH-I Hela and Madin Darby Canine Kidney (MDCK) cell monolayers, respectively, were measured by microscopic and spectrophotometric methods. Pirodavir and Oseltamivir were included as positive controls.

[4] = test system: H3N2 influenza virus, type A; experiment: Multiple cycle CPE inhibition assay on MDCK cell monolayers; type: cell-based; conditions: 0% EMEM + Hepes + Trypsin
Experimental: as §3

Giardia intestinalis = experiment: Antiparasite test by conventional means; type: cell-based; conditions: at concentrations of at least 50 μg/mL
Experimental: (§4) The above identified compounds according to Formula (IV) were tested by conventional means against Trichomis vaginalis, Giardia Intestinalis, and Trypanosoma brucei.

Trichomonas vaginalis = experiment: Antiparasite test by conventional means; type: cell-based; conditions: at concentrations of at least 50 μg/mL
Experimental: as §4

Trypanosoma brucei = experiment: Antiparasite test by conventional means; type: cell-based; conditions: at concentrations of at least 50 μg/mL
Experimental: as §4

B. fragilis group = experiment: CLSI agar dilution MIC, anaerobic clinical isolates; type: cell-based; conditions: Bacteroides fragilis, B. fragilis gp (40 isolates), 48 h, 35° C.
Experimental: (§5) Methods. Recent clinical anaerobic isolates (2000 to date) comprised 40 B. fragilis group, 26 Prevotella/Porphyromonas, 28 fusobacteria, 16 anaerobic Gram positive cocci, 14 anaerobic Gram-positive non-sporeforming rods and 18 clostridia. CLSI agar dilution MIC methodology with enriched Brucella blood agar and inocula of 1×10^5 cfu/spot was used. Plates were incubated in an anaerobic glove box at 35° C. for 48 h. Results.

Prevotella/Porphyromonas = experiment: as above; type: cell-based; conditions: Prev/Porphy (26 isolates), 48 h
Experimental: as §5

fusobacteria = experiment: as above; type: cell-based; conditions: Fusobacteria (28 isolates), 48 h
Experimental: as §5

[5] = test system: anaerobic Gram positive cocci; experiment: as above; type: cell-based; conditions: Gram + cocci (16 isolates), 48 h
[6] = test system: anaerobic Gram-positive non-sporeforming rods; experiment: as above; type: cell-based; conditions: Gram + rods (14 isolates), 48 h
clostridia = experiment: organism not typed; type: cell-based; conditions: 48 h
[7] = test system: anaerobic bacteria (all 142 isolates); experiment: CLSI agar dilution MIC, all anaerobic clinical isolates; type: cell-based; conditions: for MIC50 / MIC90: All (142 isolates), agar dilution, 48 h; for Activity against anaerobic bacteria groups (summary in words): summary of MIC results
Hepatitis B Virus (HBV) = experiment: HBV replication in 2.2.15 cell culture, 9-day assay; type: cell-based; conditions: for EC50 / EC90: Hepatitis B virus
Experimental: (§6) Anti-Hepatitis B Virus (HBV) analyses and an assessment of cytotoxicity were performed in a 9-day assay in the chronically-producing HBV human hepatoblastoma cell line, 2.2.15, as previously described (Korba, B. E. & Gerin, J. L. Use of a standardized cell culture assay to assess activities of nucleosides analogues against hepatitis B virus replication. Antivir. Res. 19, 55-70 (1992)).
(§7) Values presented (±standard deviations [S.D.]) were calculated by linear regression analysis using data combined from all treated cultures. S.D. were calculated using the standard error of regression generated from linear regression analyses (QuattroPro™). EC50, EC90=drug concentration at which a 2-fold, or a 10-fold depression of HBV DNA (relative to the average levels in untreated cultures), respectively, was observed, CC50=drug concentration at which a 2-fold depression of neutral red dye uptake (relative to the average levels in untreated cultures) was observed, The EC90 values were used for the calculation of the Selectivity Indexes [S.I.] since at least a 3-fold depression of HBV levels is typically required to achieve statistical significance in this assay system. HBV R.I.=intracellular HBV DNA replication intermediate.

[8] = Cytotoxicity in 2.2.15 cells (neutral red dye uptake); type: cell-based; conditions: human, 2-fold depression of neutral red dye uptake
Experimental: as §6, §7

[9] = test system: Paramyxovirus: Sendai virus; experiment: microbe, parasite or virus in culture; type: cell-based; conditions: Respirovirus muris; Sendai virus in cell culture (Table 2)
Cryptosporidium spp. = experiment: Efficacy against intracellular protozoa
Neospora spp. = experiment: Efficacy against intracellular protozoa
Sarcocystis neurona = experiment: Efficacy against intracellular protozoa
[10] = microscopic reading, read-out: EC50, Microscopic
[11] = spectrophotometric reading, read-out: EC50, Spectrophotometer
[12] = Clostridia (18 isolates), agar dilution, read-out: MIC50

## NC(=O)c1ncn([C@@H]2O[C@H](CO)[C@@H](O)[C@H]2O)n1 [Ribavirin, reference compound]
[1]; AVA5 cells, CC50/EC50
  Selectivity Index: 0.6
[1]; Hepatitis C virus, Ava5
  EC50: 94 ± 10 µM
  EC90: > 100 µM
[2]
  CC50 at 3 day: 61 ± 2.9 µM

## COc1cccc(C(=O)Nc2ncc(Br)s2)c1OC(C)=O [RM-4806, 2-(acetolyloxy)-3-methoxy-N-(5-bromo-2-thiazolyl)benzamide]
[3]; [10]
  EC50: 5 µg/mL
[3]; [11]
  EC50: 4 µg/mL
[4]; [10]
  EC50: 0.46 µg/mL
[4]; [11]
  EC50: 0.57 µg/mL
Giardia intestinalis
  antiparasite activity: failed to exhibit antiparasite activitity
Trichomonas vaginalis
  antiparasite activity: failed to exhibit antiparasite activitity
Trypanosoma brucei
  antiparasite activity: failed to exhibit antiparasite activitity

## CC(=O)Oc1ccccc1C(=O)Nc1ncc([N+](=O)[O-])s1 [Nitazoxanide, 2-(acetolyloxy)-N-(5-nitro-2-thiazolyl) benzamide]
B. fragilis group
  MIC50: 2 µg/mL (≈ 6.51 µM)
  MIC90: 4 µg/mL (≈ 13 µM)
Prevotella/Porphyromonas
  MIC50: 4 µg/mL (≈ 13 µM)
  MIC90: 8 µg/mL (≈ 26 µM)
fusobacteria
  MIC50: 1 µg/mL (≈ 3.25 µM)
[5]
  MIC50: 0.5 µg/mL
  MIC90: 2 µg/mL
[6]
  MIC50: 16 µg/mL
  MIC90: > 32 µg/mL
clostridia; [12]
  MIC50: 0.5 µg/mL (≈ 1.63 µM)
[7]
  MIC50: 2 µg/mL (≈ 6.51 µM)
  MIC90: 4 µg/mL (≈ 13 µM)
  Activity against anaerobic bacteria groups (summary in words): potent against all anaerobic bacteria groups except for Gram-positive anaerobic rods

## CC(=O)Oc1c(C)cccc1C(=O)Nc1ncc(Cl)s1 [RM-4804, 2-(acetolyloxy)-3-methyl-N-(5-chloro-2-thiazolyl)benzamide]
[3]; [10]
  EC50: 0.57 µg/mL
[3]; [11]
  EC50: 0.32 µg/mL
[4]; [10]
  EC50: 0.93 µg/mL
[4]; [11]
  EC50: 0.57 µg/mL
Giardia intestinalis
  antiparasite activity: failed to exhibit antiparasite activitity
Trichomonas vaginalis
  antiparasite activity: failed to exhibit antiparasite activitity
Trypanosoma brucei
  antiparasite activity: failed to exhibit antiparasite activitity

## CCOC(=O)c1ccc(OCCC2CCN(c3ccc(C)nn3)CC2)cc1 [Pirodavir, reference compound]
[3]; [10]
  EC50: 0.007 µg/mL
[3]; [11]
  EC50: 0.004 µg/mL

## Nc1ccn([C@@H]2CS[C@H](CO)O2)c(=O)n1 [Lamivudine, reference compound]
Hepatitis B Virus (HBV); read-out: Extracellular Virion DNA EC50
  EC50: 0.058 ± 0.006 µM
Hepatitis B Virus (HBV); read-out: Extracellular Virion DNA EC90
  EC90: 0.164 ± 0.015 µM
Hepatitis B Virus (HBV); read-out: Intracellular HBV R.I. EC50
  EC50: 0.172 ± 0.02 µM
Hepatitis B Virus (HBV); read-out: Intracellular HBV R.I. EC90
  EC90: 0.66 ± 0.068 µM
Hepatitis B Virus (HBV); calculated with EC90 values (CC50/EC90), HBV R.I.
  Selectivity Index R.I.: 3377
Hepatitis B Virus (HBV); calculated with EC90 values (CC50/EC90), virion DNA
  Selectivity Index Virion: 12959
[8]
  CC50 at 9 day: 2230 ± 76 µM

## CC(=O)Oc1ccccc1C(=O)Nc1ncc(Br)s1 [RM-4820, 2-(acetolyloxy)-N-(5-bromo-2-thiazolyl)benzamide]
[9]
  EC50: 0.34 µM
Cryptosporidium spp.
  efficacy against intracellular protozoa: effective
Neospora spp.
  efficacy against intracellular protozoa: effective
Sarcocystis neurona
  efficacy against intracellular protozoa: effective

## CC(=O)Oc1ccc(C)cc1C(=O)Nc1ncc(Br)s1 [RM-4821]
[9]
  EC50: 0.36 µM
Cryptosporidium spp.
  efficacy against intracellular protozoa: effective
Neospora spp.
  efficacy against intracellular protozoa: effective
Sarcocystis neurona
  efficacy against intracellular protozoa: effective

## Cc1ncc([N+](=O)[O-])n1CCO [Metronidazole]
B. fragilis group
  MIC50: 1 µg/mL (≈ 5.84 µM)
  MIC90: 2 µg/mL (≈ 11.7 µM)
Prevotella/Porphyromonas
  MIC50: 0.5 µg/mL (≈ 2.92 µM)
fusobacteria
  MIC50: 0.25 µg/mL (≈ 1.46 µM)
  MIC90: 0.25 µg/mL (≈ 1.46 µM)
[5]
  MIC50: 0.5 µg/mL
  MIC90: 1 µg/mL
[6]
  MIC50: > 16 µg/mL
  MIC90: > 16 µg/mL
[7]
  MIC50: 1 µg/mL (≈ 5.84 µM)
  MIC90: 2 µg/mL (≈ 11.7 µM)

## CCOC(=O)C1=C[C@@H](OC(CC)CC)[C@H](NC(C)=O)[C@@H](N)C1 [Oseltamivir, reference compound]
[4]; [10]
  EC50: 0.13 to 0.17 µg/mL
[4]; [11]
  EC50: 0.08 to 0.36 µg/mL

## CC(=O)Oc1cc(C)ccc1C(=O)Nc1ncc(Br)s1 [RM-4822]
[9]
  EC50: 0.36 µM
Cryptosporidium spp.
  efficacy against intracellular protozoa: effective
Neospora spp.
  efficacy against intracellular protozoa: effective
Sarcocystis neurona
  efficacy against intracellular protozoa: effective

## CCC[C@@H]1C[C@@H](C(=O)N[C@@H]([C@H]2O[C@H](SC)[C@H](O)[C@@H](O)[C@H]2O)[C@H](C)Cl)N(C)C1 [Clindamycin]
B. fragilis group
  MIC50: 2 µg/mL (≈ 4.71 µM)
  MIC90: > 32 µg/mL
Prevotella/Porphyromonas
  MIC50: ≤ 0.015 µg/mL
  MIC90: ≤ 0.015 µg/mL
fusobacteria
  MIC50: 0.06 µg/mL (≈ 0.141 µM)
  MIC90: 0.125 µg/mL (≈ 0.294 µM)
[5]
  MIC50: 0.125 µg/mL
  MIC90: 0.5 µg/mL
[6]
  MIC50: 0.125 µg/mL
  MIC90: 4 µg/mL
clostridia
  MIC50: 1 µg/mL (≈ 2.35 µM)
  MIC90: > 32 µg/mL
[7]
  MIC50: 0.125 µg/mL (≈ 0.294 µM)
  MIC90: 8 µg/mL (≈ 18.8 µM)

## O=C(Nc1ncc([N+](=O)[O-])s1)c1ccccc1O [Tizoxanide]
B. fragilis group
  MIC50: 2 µg/mL (≈ 7.54 µM)
  MIC90: 4 µg/mL (≈ 15.1 µM)
Prevotella/Porphyromonas
  MIC90: 16 µg/mL (≈ 60.3 µM)
fusobacteria
  MIC50: 0.5 µg/mL (≈ 1.89 µM)
  MIC90: 2 µg/mL (≈ 7.54 µM)
[5]
  MIC50: 0.5 µg/mL
  MIC90: 1 µg/mL
[6]
  MIC50: 8 µg/mL
  MIC90: > 32 µg/mL
clostridia; [12]
  MIC50: 0.25 µg/mL (≈ 0.943 µM)
[7]
  MIC50: 2 µg/mL (≈ 7.54 µM)
  MIC90: 4 µg/mL (≈ 15.1 µM)
  Activity against anaerobic bacteria groups (summary in words): potent against all anaerobic bacteria groups except for Gram-positive anaerobic rods
